# Experimental data as given in patent US12528790B2, “Amide derivative having antiviral activity” (Shionogi & Co., Ltd., priority 2020, dated 2026).
# Like-named read-outs stand apart in the source and are kept apart here.
# What was measured:
# [1] = tested on: RSV A2 strain; test: In vitro CPE (CytoPathic Effect) inhibition effect evaluation test, RSV type A; format: cell-based
# In short: (§1)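 HEp-2 cells (2.4×10^5 cells/mL, 2% FBS E-MEM) were infected with RSV alongside 3-fold compound dilutions and incubated at 37 °C, 4 days for A2 and 5 days for B Wash/18537. Viable cells quantified by CellTiter-Glo 2.0 luminescence; EC50 by nonlinear regression as 50% CPE inhibition.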
# [2] = tested on: RSV B (Wash/18537 strain); test: In vitro CPE (CytoPathic Effect) inhibition effect evaluation test, RSV type B; format: cell-based
# In short: as §1
# [3] = human respiratory syncytial virus, inhibitory effect against RSV type A (RSV A2 strain), HEp-2 cells, CPE inhibition, read-out: EC50
# [4] = human respiratory syncytial virus, inhibitory effect against RSV type B, CPE inhibition, read-out: EC50
# [5] = inhibitory effect against RSV type A (RSV A2 strain), HEp-2 cells, CPE inhibition, read-out: EC50
# [6] = inhibitory effect against RSV type B, CPE inhibition, read-out: EC50
# [7] = human respiratory syncytial virus, HEp-2, 96 h, read-out: EC50, inhibitory effect against RSV type A (CPE inhibition)
# [8] = human respiratory syncytial virus, HEp-2, 120 h, HEp-2 cells, RSV B (Wash/18537 strain), 5 days, CellTiter-Glo, read-out: EC50, inhibitory effect against RSV type B (CPE inhibition)
Structure (SMILES),"EC50 [1, 3]","EC50 [2, 4]",other results
CC(F)(F)c1nc(N2CC3(CCCCC3)c3cc(OC4CCC5(CC4)COC5)ccc32)ncc1C(=O)NC1(C(=O)O)C2CC3CC(C2)CC1C3 (stereo not drawn) [Compound I-401],< 10 nM,10 to 100 nM,–
COC1CC(n2cc(-c3ccc(C(=O)NC4(C(=O)O)C5CC6CC(C5)CC4C6)c(C(F)(F)F)n3)c3ccc(OC4CCN(c5ncccn5)CC4)cc32)C1 (stereo not drawn) [Compound I-250],< 10 nM,< 10 nM,–
CC(F)(F)c1nc(N2CC3(CCOCC3)c3cc(OC4CCN(CC(F)(F)F)CC4)ncc32)ncc1C(=O)N[C@]1(C(=O)O)[C@@H]2CC3C[C@H]1C[C@@](F)(C3)C2 [Compound I-605],< 10 nM,< 10 nM,–
CC(F)(F)c1nc(-c2cn(C3CCC(F)(F)CC3)c3cc(O[C@H]4CC[C@@H](N5CC(F)(F)C5)CC4)ccc23)ncc1C(=O)NC1(C(=O)O)C2CC3CC(C2)CC1C3 (stereo partly drawn) [Compound I-546],< 10 nM,< 10 nM,–
N#Cc1cnc(N2CCC(Oc3ccc4c(c3)C3(CCCCC3)CN4c3ncc(C(=O)NC4(C(=O)O)C5CC6CC(C5)CC4C6)c(C(F)(F)F)n3)CC2)nc1 (stereo not drawn) [Compound I-520],< 10 nM,< 10 nM,–
CC(F)(F)c1nc(-c2cn(C3CCC(F)(F)CC3)c3cc(O[C@H]4CC[C@H](N5CC(F)(F)C5)CC4)ccc23)ncc1C(=O)NC1(C(=O)O)C2CC3CC(C2)CC1C3 (stereo partly drawn) [Compound I-481],< 10 nM,< 10 nM,–
COCC(C)n1cc(-c2ncc(C(=O)NC3(C(=O)O)C4CC5CC(C4)CC3C5)c(C(F)(F)F)n2)c2ccc(OC3CCN(c4ncc(F)cn4)CC3)cc21 (racemic) [Compound I-430],< 10 nM,< 10 nM,–
Cc1ccc2c(c1)C1(CCOCC1)CN2c1ncc(C(=O)NC2(C(=O)O)C3CC4CC(C3)CC2C4)c(C(F)(F)F)n1 (stereo not drawn) [Compound I-109],–,–,"EC50 [1, 5]: < 10 nM; EC50 [2, 6]: 10 to 100 nM"
CC(F)(F)c1nc(N2CC3(CCOCC3)c3cc(O[C@H]4CC[C@H](NCC(F)(F)F)CC4)ccc32)ncc1C(=O)NC1(C(=O)O)C2CC3CC(C2)CC1C3 (stereo partly drawn) [Compound I-552],< 10 nM,< 10 nM,–
CC(F)(F)c1nc(N2CC3(CCOCC3)c3cc(OC4CCN(C5CS(=O)(=O)C5)CC4)ccc32)ncc1C(=O)NC1(C(=O)O)C2CC3CC(C2)CC1C3 (stereo not drawn) [Compound I-593],< 10 nM,< 10 nM,–
O=C(NC1(C(=O)O)C2CC3CC(C2)CC1C3)c1cnc(-c2cn(C3CCC(F)(F)CC3)c3cc(OC4CCC(N5CC(F)(F)C5)C4)ccc23)nc1C(F)(F)F (stereo not drawn) [Compound I-451],< 10 nM,10 to 100 nM,–
CCC1(CC)CN(c2ncc(C(=O)NC3(C(=O)O)C4CC5CC(C4)CC3C5)c(C(C)(F)F)n2)c2ccc(OC3CCN(c4ncc(F)cn4)CC3)cc21 (stereo not drawn) [Compound I-588],< 10 nM,< 10 nM,–
CC(C)n1cc(-c2ncc(C(=O)NC3(C(=O)O)C4CC5CC(C4)CC3C5)c(C(F)(F)F)n2)c2ccc(O[C@H]3CC[C@H](N4CC(F)(F)C4)CC3)cc21 (stereo partly drawn) [Compound I-616],< 10 nM,< 10 nM,–
CC(F)(F)c1nc(N2CC3(CCOCC3)c3cc(OC4CCN(CC(F)F)CC4)ccc32)ncc1C(=O)NC1(C(=O)O)C2CC3CC(C2)CC1C3 (stereo not drawn) [Compound I-559],< 10 nM,< 10 nM,–
"O=C(NC1(C(=O)O)C2CC3CC(C2)CC1C3)c1cnc(-c2cn(C3CCC(F)(F)CC3)c3cc(OC4CC(N5CC(F)(F)C5)C4)ccc23)nc1C(F)(F)F (single isomer, unassigned) [Compound I-412]",< 10 nM,10 to 100 nM,–
Cc1nnc(N2CCC(Oc3ccc4c(c3)C3(CCCCC3)CN4c3ncc(C(=O)NC4(C(=O)O)C5CC6CC(C5)CC4C6)c(C(F)(F)F)n3)CC2)o1 (stereo not drawn) [Compound I-534],< 10 nM,< 10 nM,–
O=C(NC1(C(=O)O)C2CC3CC(C2)CC1C3)c1cnc(N2CCc3cc(OCCC4CCOCC4)ccc32)nc1C(F)(F)F (stereo not drawn) [Compound I-23],–,–,"EC50 [1, 7]: 0.96 nM; EC50 [2, 8]: 16 nM"
O=C(NC1(C(=O)O)C2CC3CC(C2)CC1C3)c1cnc(-c2nn(C3CCOCC3)c3cc(OC4CCN(c5ncccn5)CC4)ccc23)nc1C(F)(F)F (stereo not drawn) [Compound I-159],–,–,"EC50 [1, 7]: 0.88 nM; EC50 [2, 8]: 3 nM"
COc1nc(N2CCc3cc(OCCC4CCOCC4)ccc32)nc(C(F)(F)F)c1C(=O)NC1(C(=O)O)C2CC3CC(C2)CC1C3 (stereo not drawn) [Compound I-88],–,–,"EC50 [1, 5]: < 10 nM; EC50 [2, 6]: 10 to 100 nM"
CC(F)(F)c1nc(N2CC3(CCCCC3)c3cc(OC4CCN(c5nc(C(F)(F)F)ns5)CC4)ccc32)ncc1C(=O)NC1(C(=O)O)C2CC3CC(C2)CC1C3 (stereo not drawn) [Compound I-536],< 10 nM,10 to 100 nM,–
"O=C(NC1(C(=O)O)C2CC3CC(C2)CC1C3)c1cnc(-c2cn(C3CCC(F)(F)CC3)c3cc(OC4CCC(OC5CC5)CC4)ccc23)nc1C(F)(F)F (single isomer, unassigned) [Compound I-478]",< 10 nM,< 10 nM,–
